Measured values published in patent US6723897B2, “Methods for controlling gibberellin levels” (Monsanto Technology, LLC, priority 1998, dated 2004).

Tests used:
[1] = test system: GA-deficient transgenic soybean line 719 (R5); assay: Hilum treatment of soybean seeds, seedling growth and development, GA-deficient soybean; type: in vivo, Glycine max; design: key to Emergence timing / Hypocotyl length (6 DAP) / 1st internode length (12 DAP) / 3rd internode length (20 DAP) / 2nd internode length (12 DAP): pos: emergence faster/stem segment longer than controls; 0: emergence timing/stem segment length similar to controls; neg: emergence slower/stem segment shorter than controls; details: for Lowest rate where biological activity is observed, 1st internode length (10 DAP) / Lowest rate where biological activity is observed, emergence timing / Lowest rate where biological activity is observed, hypocotyl length (5 DAP) / 1st internode length (12 DAP) / Emergence timing / Hypocotyl length (6 DAP): L719, hilum treatment; for Lowest rate where biological activity is observed, 1st internode length (10 DAP) / Lowest rate where biological activity is observed, emergence timing / Lowest rate where biological activity is observed, hypocotyl length (5 DAP): rate response; for 1st internode length (12 DAP) / Emergence timing / Hypocotyl length (6 DAP): single rate per compound 8.3-16.5 μg/seed; for activity on line 719 in terms of emergence timing and hypocotyl length: single rate, concentration that does not affect normal plant tissue
Procedure: (§1) In the previous experiments, the effect of various GA compounds on transgenic, GA-deficient and wild-type soybean is evaluated by treating seeds with these compounds via imbibition. Several of these compounds are not completely soluble in water, which limited the interpretation of their utility in rescuing GA-deficient dwarf plants. The purpose of this experiment is to reevaluate selected, previously tested compounds, and additional compounds, by introducing them to the seed via the hilum. As shown by the results presented below, direct application of small quantities of GA compounds dissolved in an organic solvent to the hilum is an effective method of treating soybean seeds. As in the previously described experiments, comparison is made between activity on GA-deficient soybean seedlings and normal (wild-type) seedlings. […] soybean seeds are supplied by Asgrow Seed Company (Des Moines, Iowa). Seed of GA-deficient transgenic soybean line 719 is created by transformation of […] soybean with pMON29801 (FMV/antisense CPScc). Fifth generation seed (R5) is used for these experiments. […] When multiple droplets are applied, each 1 μl droplet is allowed to dry before subsequent droplets are added. Ethanol minus compound is used a treatment control. […] (29° C.) and 75° F. (24° C.), respectively. Emergence timing is measured by counting the number of emerged seedlings at different times after planting. Emergence is defined as the presence of cotyledons raised to soil level or above. […] To assess the ability of a seed treatment to deliver biological activity beyond the first internode, measurements are taken on selected treatments after prolonged growth and development.

[2] = test system: wild-type A3237 soybean; assay: Hilum treatment of soybean seeds, seedling growth and development, wild-type soybean; type: in vivo, Glycine max; design: key to Emergence timing / Hypocotyl length (6 DAP) / 1st internode length (12 DAP) / 3rd internode length (20 DAP): pos: emergence faster/stem segment longer than controls; 0: emergence timing/stem segment length similar to controls; neg: emergence slower/stem segment shorter than controls; details: for Lowest rate where biological activity is observed, 1st internode length (10 DAP) / Lowest rate where biological activity is observed, emergence timing / Lowest rate where biological activity is observed, hypocotyl length (5 DAP): rate response; for 1st internode length (12 DAP) / Emergence timing / Hypocotyl length (6 DAP): single rate per compound 8.3-16.5 μg/seed
Procedure: as §1

Question: How did the “Lowest rate where biological activity is observed, 1st internode length (10 DAP)” value [1] turn out when `C=C1C[C@]23C[C@@]1(O)CC[C@H]2[C@]1(C)CCC[C@@](C)(C(=O)O)[C@H]1[C@@H]3C(=O)O` [GA53] was run?
Answer: >10 μg/seed

Question: What about the “Lowest rate where biological activity is observed, emergence timing” value [1] of the same compound?
Answer: 1 μg/seed

Question: What about the “Lowest rate where biological activity is observed, hypocotyl length (5 DAP)” value [1] of the same compound?
Answer: 1 μg/seed

Question: What about the “1st internode length (12 DAP)” value [1] of the same compound?
Answer: 0

Question: And the Emergence timing [1]?
Answer: pos

Question: And the “Hypocotyl length (6 DAP)” value [1]?
Answer: pos

Question: And the “activity on line 719 in terms of emergence timing and hypocotyl length” value ([1]; hilum)?
Answer: biologically active

Question: What about the “Lowest rate where biological activity is observed, 1st internode length (10 DAP)” value [2] of the same compound?
Answer: >10 μg/seed

Question: What about the “Lowest rate where biological activity is observed, emergence timing” value [2] of the same compound?
Answer: >10 μg/seed

Question: What about the “Lowest rate where biological activity is observed, hypocotyl length (5 DAP)” value [2] of the same compound?
Answer: >10 μg/seed

Question: And the “1st internode length (12 DAP)” value [2]?
Answer: neg

Question: And the Emergence timing [2]?
Answer: 0

Question: And the “Hypocotyl length (6 DAP)” value [2]?
Answer: 0

Question: `C=C1C[C@@]23CC[C@@H]4[C@](C)(CO)CCC[C@@]4(C)[C@@H]2CC[C@@H]1C3` [kaurenol] was tested. Which “Lowest rate where biological activity is observed, 1st internode length (10 DAP)” value [1] did it give?
Answer: >100 μg/seed

Question: And the “Lowest rate where biological activity is observed, emergence timing” value [1]?
Answer: >100 μg/seed

Question: And the “Lowest rate where biological activity is observed, hypocotyl length (5 DAP)” value [1]?
Answer: >100 μg/seed

Question: What about the “1st internode length (12 DAP)” value [1] of the same compound?
Answer: 0

Question: And the Emergence timing [1]?
Answer: pos

Question: What about the “Hypocotyl length (6 DAP)” value [1] of the same compound?
Answer: pos

Question: What about the “confirmation of activity previously observed” value ([1]; rate up to 100 ng/seed, hilum) of the same compound?
Answer: not confirmed

Question: What about the “activity on line 719 in terms of emergence timing and hypocotyl length” value ([1]; hilum) of the same compound?
Answer: biologically active

Question: And the “Lowest rate where biological activity is observed, 1st internode length (10 DAP)” value [2]?
Answer: >100 μg/seed

Question: And the “Lowest rate where biological activity is observed, emergence timing” value [2]?
Answer: >100 μg/seed

Question: What about the “Lowest rate where biological activity is observed, hypocotyl length (5 DAP)” value [2] of the same compound?
Answer: >100 μg/seed

Question: And the “1st internode length (12 DAP)” value [2]?
Answer: 0

Question: What about the Emergence timing [2] of the same compound?
Answer: 0

Question: And the “Hypocotyl length (6 DAP)” value [2]?
Answer: 0
